Test results: patent US6274715A, “Tricyclic erythromycin derivatives” (priority 1997, dated 2001)
≈ marks a conversion by molar mass, not a printed value.

Assays:
Format in all cases: cell-based
[1] = system: STAPHYLOCOCCUS AUREUS A-5278; test: In vitro antibacterial activity, MIC, BHI agar dilution; settings: S. aureus A-5278, unit assumed
ESCHERICHIA COLI DC-2 = test: as above; settings: E. coli DC-2, unit assumed
[2] = system: STAPHYLOCOCCUS AUREUS CMX 642A; test: as above; settings: S. aureus CMX 642A, unit assumed
ESCHERICHIA COLI H560 = test: as above; settings: E. coli H560, unit assumed
STR[…] 508 = test: as above; settings: S. agalactiae CMX 508, unit assumed
Procedure: (§1) Representative compounds of the present invention were assayed in vitro for antibacterial activity as follows: Twelve petri dishes containing successive aqueous dilutions of the test compound mixed with 10 mL of sterilized Brain Heart Infusion (BHI) agar (Difco 0418-01-5) were prepared. Each plate was inoculated with 1:100 (or 1:10 for slow-growing strains, such as Micrococcus and Streptococcus) dilutions of up to 32 different microorganisms, using a Steers replicator block. The inoculated plates were incubated at 35-37° C. for 20 to 24 hours. In addition, a control plate, using BHI agar containing no test compound, was prepared and incubated at the beginning and end of each test.
(§2) An additional plate containing a compound having known susceptibility patterns for the organisms being tested and belonging to the same antibiotic class as the test compound was also prepared and incubated as a further control, as well as to provide test-to-test comparability. Erythromycin A was used for this purpose.
(§3) After incubation, each plate was visually inspected. The minimum inhibitory concentration (MIC) was defmed as the lowest concentration of drug yielding no growth, a slight haze, or sparsely isolated colonies on the inoculum spot as compared to the growth control.

M[…] ATCC 4698 = test: as above; settings: M. luteus ATCC 4698, unit assumed
Procedure: as §1, §2, §3

M[…] ATCC 9341 = test: as above; settings: M. luteus ATCC 9341, unit assumed
Procedure: as §1, §2, §3

EN[…] ATCC 8043 = test: as above; settings: E. faecium ATCC 8043, unit assumed
Procedure: as §1, §2, §3

[3] = system: STAPHYLOCOCCUS EPIDERMIDIS 3519; settings: S. epidermidis 3519; BHI agar; unit assumed
[4] = system: PSEUDOMONAS AERUGINOSA DPHD-2862; test: In vitro antibacterial activity, MIC, BHI agar dilution; settings: P. aeruginosa DPHD-2862, unit assumed
ESCHERICHIA COLI KNK 437 = settings: E. coli KNK 437; BHI agar; unit assumed
[5] = system: STAPHYLOCOCCUS AUREUS CMX 553; test: In vitro antibacterial activity, MIC, BHI agar dilution; settings: S. aureus CMX 553, unit assumed
CANDIDA ALBICANS CCH 442 = test: as above; settings: C. albicans CCH 442, unit assumed
[6] = system: STREPTOCOCCUS PYOGENES 930; test: as above; settings: S. pyogenes 930, unit assumed
[7] = system: PSEUDOMONAS AERUGINOSA BMH10; test: as above; settings: P. aeruginosa BMH10, unit assumed
ESCHERICHIA COLI JUHL = settings: E. coli JUHL; BHI agar; unit assumed
[8] = system: PSEUDOMONAS AERUGINOSA K799/WT; test: In vitro antibacterial activity, MIC, BHI agar dilution; settings: P. aeruginosa K799/WT, unit assumed
[9] = system: PSEUDOMONAS AERUGINOSA DPHD-5263; test: as above; settings: P. aeruginosa DPHD-5263, unit assumed
[10] = system: STAPHYLOCOCCUS AUREUS A5177; test: as above; settings: S. aureus A5177, unit assumed
[11] = system: PSEUDOMONAS AERUGINOSA 5007; test: as above; settings: P. aeruginosa 5007, unit assumed
[12] = system: STAPHYLOCOCCUS AUREUS ATCC 6538P; test: as above; settings: S. aureus ATCC 6538P, 35-37° C., 20 to 24 hours, unit assumed
[13] = system: STAPHYLOCOCCUS AUREUS 1775; test: as above; settings: S. aureus 1775, unit assumed
[14] = system: PROVIDENCIA STUARTII CMX 640; settings: P. stuartii CMX 640; BHI agar; unit assumed
[15] = system: STREPTOCOCCUS PYOGENES EES61; test: In vitro antibacterial activity, MIC, BHI agar dilution; settings: S. pyogenes EES61, unit assumed
PSEUDOMONAS CEPACIA 296I = test: as above; settings: P. cepacia 296I, unit assumed
[16] = system: STAPHYLOCOCCUS AUREUS NCTC10649M; test: as above; settings: S. aureus NCTC10649M, unit assumed
[17] = system: ENTEROBACTER AEROGENES ATCC 13048; test: as above; settings: E. aerogenes ATCC 13048, unit assumed
ESCHERICHIA COLI SS = test: as above; settings: E. coli SS, unit assumed
[18] = system: PSEUDOMONAS AERUGINOSA K799/61; test: as above; settings: P. aeruginosa K799/61, unit assumed
[19] = system: MYCOBACTERIUM SMEGMATIS ATCC 114; test: as above; settings: M. smegmatis ATCC 114, unit assumed
[20] = system: STREPTOCOCCUS BOVIS A-5169; test: as above; settings: S. bovis A-5169, unit assumed
[21] = system: KLEBSIELLA PNEUMONIAE ATCC 8045; test: as above; settings: K. pneumoniae ATCC 8045, unit assumed
[22] = system: STREPTOCOCCUS PYOGENES PIU 2548; test: as above; settings: S. pyogenes PIU 2548, unit assumed

## CC[C@H]1OC(=O)[C@H](C)C(=O)[C@H](C)[C@@H](O[C@@H]2O[C@H](C)C[C@H](N(C)C)[C@H]2O)[C@](C)(OC)C[C@@H](C)C2=N[C@@H](COCc3ccncc3)CN3C(=O)O[C@@]1(C)[C@H]3[C@H]2C [Example 86]
[1]
  MIC: > 100 µg/mL
ESCHERICHIA COLI DC-2
  MIC: 100 µg/mL (≈ 132 µM)
[2]
  MIC: 0.39 µg/mL (≈ 0.514 µM)
ESCHERICHIA COLI H560
  MIC: 50 µg/mL (≈ 65.9 µM)
STR[…] 508
  MIC: 0.01 µg/mL (≈ 0.0132 µM)
M[…] ATCC 4698
  MIC: 0.39 µg/mL (≈ 0.514 µM)
M[…] ATCC 9341
  MIC: 0.05 µg/mL (≈ 0.0659 µM)
EN[…] ATCC 8043
  MIC: 0.05 µg/mL (≈ 0.0659 µM)
[3]
  MIC: 0.39 µg/mL (≈ 0.514 µM)
[4]
  MIC: > 100 µg/mL
ESCHERICHIA COLI KNK 437
  MIC: > 100 µg/mL
[5]
  MIC: 0.39 µg/mL (≈ 0.514 µM)
CANDIDA ALBICANS CCH 442
  MIC: > 100 µg/mL
[6]
  MIC: > 100 µg/mL
[7]
  MIC: > 100 µg/mL
ESCHERICHIA COLI JUHL
  MIC: > 100 µg/mL
[8]
  MIC: 100 µg/mL (≈ 132 µM)
[9]
  MIC: > 100 µg/mL
[10]
  MIC: 0.2 µg/mL (≈ 0.264 µM)
[11]
  MIC: > 100 µg/mL
[12]
  MIC: 0.39 µg/mL (≈ 0.514 µM)
[13]
  MIC: > 100 µg/mL
[14]
  MIC: > 100 µg/mL
[15]
  MIC: < 0.005 µg/mL
PSEUDOMONAS CEPACIA 296I
  MIC: > 100 µg/mL
[16]
  MIC: 0.39 µg/mL (≈ 0.514 µM)
[17]
  MIC: > 100 µg/mL
ESCHERICHIA COLI SS
  MIC: 0.39 µg/mL (≈ 0.514 µM)
[18]
  MIC: 1.56 µg/mL (≈ 2.06 µM)
[19]
  MIC: 0.78 µg/mL (≈ 1.03 µM)
[20]
  MIC: ≤ 5 ng/mL
[21]
  MIC: > 100 µg/mL

## CC[C@H]1OC(=O)[C@H](C)C(=O)[C@H](C)[C@@H](O[C@@H]2O[C@H](C)C[C@H](N(C)C)[C@H]2O)[C@](C)(OC)C[C@@H](C)C2=NC3CCCCC3N3C(=O)O[C@@]1(C)[C@H]3[C@H]2C (some centres unmarked) [Example 106]
[1]
  MIC: > 100 µg/mL
ESCHERICHIA COLI DC-2
  MIC: 25 µg/mL (≈ 36.1 µM)
[2]
  MIC: 0.39 µg/mL (≈ 0.564 µM)
ESCHERICHIA COLI H560
  MIC: 12.5 µg/mL (≈ 18.1 µM)
STR[…] 508
  MIC: 0.02 µg/mL (≈ 0.0289 µM)
M[…] ATCC 4698
  MIC: 0.39 µg/mL (≈ 0.564 µM)
M[…] ATCC 9341
  MIC: 0.05 µg/mL (≈ 0.0723 µM)
EN[…] ATCC 8043
  MIC: 0.05 µg/mL (≈ 0.0723 µM)
[3]
  MIC: 0.2 µg/mL (≈ 0.289 µM)
[4]
  MIC: > 100 µg/mL
ESCHERICHIA COLI KNK 437
  MIC: 25 µg/mL (≈ 36.1 µM)
[5]
  MIC: 0.2 µg/mL (≈ 0.289 µM)
CANDIDA ALBICANS CCH 442
  MIC: > 100 µg/mL
[6]
  MIC: > 100 µg/mL
[7]
  MIC: 100 µg/mL (≈ 145 µM)
ESCHERICHIA COLI JUHL
  MIC: 25 µg/mL (≈ 36.1 µM)
[8]
  MIC: 100 µg/mL (≈ 145 µM)
[9]
  MIC: 100 µg/mL (≈ 145 µM)
[10]
  MIC: 0.2 µg/mL (≈ 0.289 µM)
[11]
  MIC: > 100 µg/mL
[12]
  MIC: 0.2 µg/mL (≈ 0.289 µM)
[13]
  MIC: > 100 µg/mL
[14]
  MIC: > 100 µg/mL
[15]
  MIC: ≤ 0.005 µg/mL
PSEUDOMONAS CEPACIA 296I
  MIC: 100 µg/mL (≈ 145 µM)
[16]
  MIC: 0.2 µg/mL (≈ 0.289 µM)
[17]
  MIC: 50 µg/mL (≈ 72.3 µM)
ESCHERICHIA COLI SS
  MIC: 0.39 µg/mL (≈ 0.564 µM)
[18]
  MIC: 0.78 µg/mL (≈ 1.13 µM)
[19]
  MIC: 3.1 µg/mL (≈ 4.48 µM)
[20]
  MIC: ≤ 5 ng/mL
[21]
  MIC: 100 µg/mL (≈ 145 µM)

## CC[C@H]1OC(=O)[C@H](C)C(=O)[C@H](C)[C@@H](O[C@@H]2O[C@H](C)C[C@H](N(C)C)[C@H]2O)[C@](C)(OC)C[C@@H](C)C2=NC3CN(C(C)c4ccccc4)CC3N3C(=O)O[C@@]1(C)[C@H]3[C@H]2C (some centres unmarked) [Example 113]
[1]
  MIC: > 100 µg/mL
ESCHERICHIA COLI DC-2
  MIC: > 100 µg/mL
[2]
  MIC: 0.78 µg/mL (≈ 0.996 µM)
ESCHERICHIA COLI H560
  MIC: 50 µg/mL (≈ 63.9 µM)
STR[…] 508
  MIC: 0.2 µg/mL (≈ 0.255 µM)
M[…] ATCC 4698
  MIC: 0.78 µg/mL (≈ 0.996 µM)
M[…] ATCC 9341
  MIC: 0.1 µg/mL (≈ 0.128 µM)
EN[…] ATCC 8043
  MIC: 0.2 µg/mL (≈ 0.255 µM)
[3]
  MIC: 1.56 µg/mL (≈ 1.99 µM)
[4]
  MIC: > 100 µg/mL
ESCHERICHIA COLI KNK 437
  MIC: > 100 µg/mL
[5]
  MIC: 0.78 µg/mL (≈ 0.996 µM)
CANDIDA ALBICANS CCH 442
  MIC: > 100 µg/mL
[6]
  MIC: > 100 µg/mL
[7]
  MIC: > 100 µg/mL
ESCHERICHIA COLI JUHL
  MIC: > 100 µg/mL
[8]
  MIC: > 100 µg/mL
[9]
  MIC: > 100 µg/mL
[10]
  MIC: 0.39 µg/mL (≈ 0.498 µM)
[11]
  MIC: > 100 µg/mL
[12]
  MIC: 0.78 µg/mL (≈ 0.996 µM)
[13]
  MIC: > 100 µg/mL
[14]
  MIC: > 100 µg/mL
[15]
  MIC: 0.05 µg/mL (≈ 0.0639 µM)
PSEUDOMONAS CEPACIA 296I
  MIC: > 100 µg/mL
[22]
  MIC: 0.39 µg/mL (≈ 0.498 µM)
[16]
  MIC: 0.78 µg/mL (≈ 0.996 µM)
[17]
  MIC: > 100 µg/mL
[18]
  MIC: 3.1 µg/mL (≈ 3.96 µM)
[20]
  MIC: 10 ng/mL (≈ 0.0128 µM)
[21]
  MIC: > 100 µg/mL
